# According to US20190192521A1, “Methods of Treating Arid1A-Mutated Cancers With HDAC6 Inhibitors and EZH2 Inhibitors” (The Wistar Institute of Anatomy and Biology, priority 2016, published 2019):
# Columns and labels:
# Assay type in all cases: cell-based, human
# [1] = system: primary clear cell ovarian tumour cultures with (VOA4841) and without (XVOA295) ARID1A expression; assay: colony formation / dose response, primary clear cell ovarian tumour cultures
# Protocol: FIG. 71 illustrates the HDAC6 inhibitor ACY1215 dose response curves of primary clear cell ovarian tumour cultures with (VOA4841) and without (XVOA295) ARID1A expression; n=3 independent experiments.
# Cell lines and 3D culture conditions. The protocol for using primary cultures of human ovarian clear cell tumour cells was approved by the University of British Columbia Institutional Review Board. The primary tumour cells were cultured in RPMI 1640 supplemented with 10% fetal bovine serum (FBS) and 1% penicillin/streptomycin. Ovarian clear cell carcinoma cell lines (TOV21G, OVTOKO, OVISE and RMG1) were purchased from JCRB (Japanese Collection of Research Bioresources) Cell Bank. TOV21G, OVTOKO, and OVISE cells were cultured in RPMI 1640 supplemented with 10% fetal bovine serum (FBS) and 1% penicillin/streptomycin. RMG1 cells were cultured in 1:1 Dulbecco's modified Eagle's medium (DMEM):F12 supplemented with 10% FBS. Viral packaging cells were cultured in DMEM supplemented with 10% FBS at 37° C. supplied with 5% CO2. Cells lines are authenticated at The Wistar Institute's Genomics Facility using short tandem repeat DNA profiling. Regular Mycoplasma testing was performed using LookOut Mycoplasma PCR detection (Sigma-Aldrich Co.). […]
# Colony formation assays were performed as follows. […] Integrated density was measured using NIH ImageJ software.
# [2] = system: ARID1A-mutated OVISE cells; assay: growth inhibition with or without p53 knockdown, OVISE
# Protocol: Growth inhibition was calculated based on integrated density as measured in NIH ImageJ, and values were normalized to vehicle control. Data is representative of 3 independent experiments. Error bars represent S.E.M. p-value calculated via two-tailed t-test.
# Colony formation assays were performed as follows. Cell lines were infected with lentivirus pLKO.1-shRNAs or pLKO.1-control with puromycin selection marker. Infected cells were selected with 1 μg/mL of puromycin for 72 hours and the selected cells were seeded in 12-well or 24-well plates. Cell medium was changed every three days with appropriate drug doses for 14 days or until control wells became confluent. Colonies were washed twice with PBS and fixed with 10% methanol and 10% acetic acid in distilled water. Fixed colonies were stained with 0.005% crystal violet. Integrated density was measured using NIH ImageJ software.
# [3] = system: ARID1A-mutated TOV21G cells; assay: mitochondrial membrane potential (TMRE, FACS), TOV21G
# Protocol: Mean of five experimental replicates with S.E.M. p-value calculated via two-tailed t-test.
# FIG. 96 illustrates ARID1A-mutated TOV21G cells with or without endogenous p53 knockdown by a shp53 that targets the 3′ UTR region of the human TP53 gene together with a lentivirus encoding a control, wildtype p53 or a p53K12OR mutant—the indicated cells were treated with or without ACY1215 and examined for mitochondrial membrane potential by FACS; n=3 independent experiments.
# Annexin V and mitochondria membrane potentials were measured as follows. Phosphatidylserine externalization was detected using an Annexin V staining kit (Life Technologies) following the manufacturer's instructions. To measure change in mitochondria membrane potential cells were treated with 200 nM of tetramethylrhodamine, ethyl ester (TMRE; Abcam) for 15 min at 37° C. Annexin V and TMRE-positive cells were detected using the LSR18 and analyzed with the FlowJo software module.
smiles,measurement,setting,value
"O=C(CCCCCCNC(=O)c1cnc(N(c2ccccc2)c2ccccc2)nc1)NO [rocilinostat, 2-(diphenylamino)-N-(7-(hydroxyamino)-7-oxoheptyl)pyrimidine-5-carboxamide]",IC50 values in primary cells,[1],comparable to those observed in cell lines
same,sensitivity of cultures without ARID1A expression compared to those with ARID1A expression,[1],more sensitive
same,effect of p53 knockdown on apoptosis and growth inhibition induced by the compound,[2],significantly impaired the apoptosis and growth inhibition
same,mitochondrial membrane potential in ARID1A-mutated cells,[3]; 1.25 μM,significantly decreased
same,dependence of mitochondrial membrane potential decrease,"[3]; p53 knockdown, wildtype p53 or p53K120R rescue",both p53 and p53K120Ac dependent
